Results from PubChem BioAssay (NCI).
Values joined by “and” are separate entries in the source; they are usually repeats but may differ in a detail not shown here. Equal values may be shown once.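 Values below derive from 48-hour exposures of cells grown in 96-well plates, with endpoints linearly interpolated between the two concentrations bracketing the appropriate inhibition level. GI50 is the concentration that inhibits growth by half. The concentration for full growth arrest is given as TGI.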

How the values were obtained:
Test in all cases: growth of human tumour cells (NCI), 48 h
[1] = system: TK-10 renal
[2] = system: SF-268 CNS
[3] = system: NCI-H460 lung
[4] = system: OVCAR-8 ovarian
[5] = system: SN12C renal
[6] = system: ACHN renal
[7] = system: SNB-75 CNS
[8] = system: HCT-15 colon
[9] = system: CCRF-CEM leukemia
[10] = system: A549 NSCLC
[11] = system: U251 CNS
[12] = system: OVCAR-5 ovarian
[13] = system: PC-3 prostate
[14] = system: SK-MEL-5 melanoma
[15] = system: HL-60(TB) leukemia
[16] = system: LOX IMVI melanoma
[17] = system: MDA-MB-231 breast
[18] = system: SF-539 CNS
[19] = system: SW-620 colon
[20] = system: M14 melanoma
[21] = system: HCC-2998 colon
[22] = system: NCI/ADR-RES ovarian
[23] = system: EKVX NSCLC
[24] = system: MDA-MB-435
[25] = system: CAKI-1 renal
[26] = system: NCI-H23 lung
[27] = system: DU-145 prostate
[28] = system: KM12 colon
[29] = system: MCF7 breast
[30] = system: SNB-19 CNS
[31] = system: SF-295 CNS
[32] = system: HCT-116 colon
[33] = system: BT-549 breast
[34] = system: K-562 leukemia
[35] = system: HT29 colon
[36] = system: UO-31 renal
[37] = system: SK-MEL-2 melanoma
[38] = system: HOP-62 NSCLC
[39] = system: RPMI-8226 leukemia
[40] = system: OVCAR-4 ovarian
[41] = system: RXF 393 renal
[42] = system: MOLT-4 leukemia
[43] = system: SR leukemia
[44] = system: 786-0 renal

With `COc1cc(Nc2nc3ccccc3nc2NS(=O)(=O)c2ccc(NC(=O)c3ccc(C)c(OC)c3)cc2)cc(OC)c1` the TGI [1] was 37.6 µM and 54.1 µM and > 6.03 µM, the TGI [2] was > 100 µM and the TGI [3] was > 100 µM. The GI50 [4] was 4.19 µM and 20.5 µM and 2.82 µM, the TGI [4] was > 100 µM and the TGI [5] was > 100 µM. For the same compound, the TGI [6] was 48.7 µM and 62.8 µM and > 10 µM, the GI50 [7] was 1.39 µM and 1.51 µM and 0.302 µM and the TGI [7] was 13.3 µM and 20 µM and 2.75 µM. For the same compound, the GI50 [8] was 4.97 µM and 19.9 µM and 2 µM, the TGI [8] was > 100 µM and the TGI [9] was > 100 µM and 71.6 µM and > 10 µM. The GI50 [10] was 4.38 µM and 13.3 µM and 1.79 µM, the TGI [10] was > 100 µM and 80.4 µM and > 9.12 µM and the GI50 [11] was 3.71 µM and 12 µM and 2.27 µM. For the same compound, the TGI [11] was 34.7 µM and 33.5 µM and > 10 µM, the TGI [12] was > 100 µM and the TGI [13] was > 100 µM and 74.9 µM and > 6.71 µM. For the same compound, the GI50 [14] was 4.19 µM and 11.4 µM and 1.71 µM, the TGI [14] was 38.4 µM and 28.7 µM and > 6.54 µM and the TGI [15] was 38 µM and 52.9 µM and > 8.02 µM. The TGI [16] was > 100 µM, the TGI [17] was 46.2 µM and > 100 µM and > 7 µM and the TGI [18] was > 100 µM and 73.7 µM and > 6.59 µM. For the same compound, the TGI [19] was > 100 µM, the TGI [20] was > 100 µM and 94 µM and > 4.68 µM and the TGI [21] was > 100 µM and 37.7 µM and > 8.5 µM. The GI50 [22] was 4.36 µM and 17.7 µM and > 3.64 µM, the TGI [22] was > 100 µM and the GI50 [23] was 4.62 µM and 0.935 µM. The TGI [24] was > 100 µM and 86.2 µM and > 5.19 µM, the TGI [25] was > 100 µM and 73.8 µM and > 6.67 µM and the GI50 [26] was 2.27 µM and 12.5 µM and 1.33 µM. For the same compound, the TGI [26] was 17.3 µM and 58.9 µM and > 10 µM, the TGI [27] was > 100 µM and the GI50 [28] was 3.62 µM and 20 µM and 2.35 µM. For the same compound, the TGI [28] was > 100 µM, the TGI [29] was > 100 µM and the GI50 [30] was 3.14 µM and 19.8 µM and 2.3 µM. For the same compound, the TGI [30] was 31 µM and > 100 µM and > 10 µM, the GI50 [31] was 2.03 µM and 8.73 µM and 1.08 µM and the TGI [31] was 9.85 µM and 33.6 µM and > 5.22 µM. For the same compound, the TGI [32] was > 100 µM, the TGI [33] was 20.9 µM and 49.2 µM and > 6.49 µM and the GI50 [34] was 5.34 µM and 18.7 µM and > 5.29 µM. For the same compound, the TGI [34] was > 100 µM and 46.4 µM and > 10 µM, the TGI [35] was > 100 µM and the TGI [36] was 9.07 µM and 46.1 µM and > 5.04 µM. For the same compound, the TGI [37] was 22.6 µM and 32.8 µM and 3.83 µM, the TGI [38] was 25.9 µM and > 100 µM and > 9.23 µM and the GI50 [39] was 3.98 µM and 12.3 µM and 1.96 µM. For the same compound, the TGI [39] was 84.5 µM and 53.8 µM and > 10 µM, the TGI [40] was > 100 µM and the GI50 [41] was 2.8 µM and 7.57 µM and 1.06 µM. The TGI [41] was 14.8 µM and 33.4 µM and > 6.13 µM, the GI50 [42] was 4.58 µM and 14.4 µM and 2.25 µM and the TGI [42] was 45.7 µM and 43.3 µM and > 10 µM. For the same compound, the TGI [43] was 51.2 µM and 49.1 µM and > 10 µM and the TGI [44] was 74.1 µM and > 7.32 µM.
